Test results taken from patent US6869950B1, “Benzimidazole derivatives” (Fujisawa Pharmaceutical Co., Ltd., priority 1998, dated 2005).

Key:
[1] = tested on: db/db mice; experiment: Activity of decreasing blood sugar using db/db mice; format: in vivo; details: female db/db mice, 1 mg/kg, compound mixed with powdered chow, 14 days; difference between db/db and +/+ mouse defined as 100%
From the text: <Activity of Decreasing Blood Sugar Using db/db Mice>
• 1-(2-Chloro-4-(n-pentyloxy)benzyl)-2-methyl-6-((4-methylbenzene)sulfonylcarbamoyl)benzimidazole—Compound(15) • 6-((N-1-butylaminosulfonyl)carbamoyl)-1-(2-chloro-4-phenylbenzyl)-2-methylbenzimidazole—Compound(76) Animal Used
Five-week-old female mice [C57BL/KsJ-dbm db+/db+, C57BL/KsJ-dbm +m/+m (Jackson Laboratory)] were purchased, and were kept for 2 to 3 weeks. Then, these mice were used in the test.
A test compound was mixed with a powdered chow (CE-2, made by Nippon Clea) using a mortar. The mixing ratio was 0.01%. The mixed chow was changed twice a week for each group. The feed amount and the remaining amount were recorded, and the intake was calculated from the difference therebetween.
The female db/db mice were grouped according to the body weight, the plasma glucose, and the plasma triglyceride concentrations. Then, the mixture containing the test compound was administered to the mice for 14 days (from 8 to 10 weeks old). In the morning on day 7 and day 14, blood was collected from the orbital venous plexus using heparinized glass capillary tubes (Chase Heparinized Capillary Tubes), and a plasma fraction was obtained through centrifugal separation. Plasma glucose, triglyceride, and insulin concentrations were measured on day 0 and day 14. Plasma glucose and triglyceride concentrations were measured on day 7. The body weight was measured on day 0, day 7, and day 14. After the final collection of the blood, the mice were killed using CO2 gas.
The plasma glucose was measured by a glucose oxidase method (Glucose CII-Test Wako made by Wako Pure Chemical Industries, Ltd.) using from 10 to 15 μl of plasma. The plasma triglyceride concentration was measured by a GPO-p-chlorophenol method (Triglyceride G-Test Wako made by Wako Pure Chemical Industries, Ltd.) or a GPO-DAOS method (Triglyceride E-Test Wako) using from 10 to 15 μl of plasma. The above-mentioned measurements were conducted immediately after the blood collection. The plasma insulin concentration was measured by radioimmunoassay method (Phadesef Insulin RIA Kit made by Cabi Pharmacia) using 20 μl of plasma (which can be stored at −20° C.).
The difference in the plasma glucose and the plasma triglyceride concentrations between the db/db mouse and the +/+ mouse was defined as 100%, and the rate (%) of decrease in the plasma glucose and the plasma triglyceride concentrations of the group to which the test compound was administered was calculated. […]

Structure (SMILES)	rate of decrease in the plasma glucose [1] [%]	rate of decrease in the plasma triglyceride [1] [%]	melting point [°C]
CCCCNS(=O)(=O)NC(=O)c1ccc2nc(C)n(Cc3ccc(-c4ccccc4)cc3Cl)c2c1 [Compound (76), 6-((N-1-butylaminosulfonyl)carbamoyl)-1-(2-chloro-4-phenylbenzyl)-2-methylbenzimidazole]	71	98	
CCCCC#Cc1ccc(Cn2c(C)nc3ccc(C(=O)NS(=O)(=O)CCCCC)cc32)c(Cl)c1 [Compound (44), 1-(2-chloro-4-(1-hexyn-1-yl)benzyl)-2-methyl-6-(1-pentanesulfonylcarbamoyl)benzimidazole]			190 to 191
CCNS(=O)(=O)NC(=O)c1ccc2nc(C)n(Cc3ccc(-c4ccco4)cc3Cl)c2c1 [Compound (91), 1-(2-chloro-4-(2-furyl)benzyl)-6-((N-ethylaminosulfonyl)carbamoyl)-2-methylbenzimidazole]			190.5 to 192.2
CCCNS(=O)(=O)NC(=O)c1ccc2nc(C)n(Cc3ccc(OCC)cc3Cl)c2c1 [Compound (86), 1-(2-chloro-4-(ethyloxy)benzyl)-2-methyl-6-((N-1-propylaminosulfonyl)carbamoyl)benzimidazole]			175.3 to 176.2
CCCCCOc1ccc(Cn2c(C)nc3ccc(C(=O)NS(=O)(=O)NCCC)cc32)c(Cl)c1 [Compound (89), 1-(2-chloro-4-(pentyloxy)benzyl)-2-methyl-6-((N-1-propylaminosulfonyl)carbamoyl)benzimidazole]			176.4 to 179.1
CCCNS(=O)(=O)NC(=O)c1ccc2nc(C)n(Cc3ccc(C(F)(F)F)cc3Cl)c2c1 [Compound (74), 1-(2-chloro-4-(trifluoromethyl)benzyl)-2-methyl-6-((N-1-propylaminosulfonyl)carbamoyl)benzimidazole]			202 to 203
CCCCCS(=O)(=O)NC(=O)c1ccc2nc(C)n(Cc3ccc(N4CCOCC4)cc3Cl)c2c1 [Compound (71), 1-(2-chloro-4-morpholinobenzyl)-2-methyl-6-(1-pentanesulfonylcarbamoyl)benzimidazole]			205 to 207
CCCNS(=O)(=O)NC(=O)c1ccc2nc(C)n(Cc3ccc(-c4ccco4)cc3Cl)c2c1 [Compound (92), 1-(2-chloro-4-(2-furyl)benzyl)-2-methyl-6-((N-1-propylaminosulfonyl)carbamoyl)benzimidazole]			177.8 to 180.2
CCCCCOc1ccc(Cn2c(C)nc3ccc(C(=O)NS(=O)(=O)c4ccc(C)cc4)cc32)c(Cl)c1 [Compound (15), 1-(2-chloro-4-(n-pentyloxy)benzyl)-2-methyl-6-((4-methylbenzene)sulfonylcarbamoyl)benzimidazole]	79	69	
